# Laboratory results as given in patent EP1199304A1, “Bicyclic compounds and pharmaceutical composition containing tricyclic compound for treating or preventing sleep disorders” (Takeda Chemical Industries, Ltd., priority 1997, dated 1997).
# Target: melatonin receptor
# Experiment: Inhibition of 2-[125I]iodomelatonin binding (forebrain membrane homogenate)
# Set-up: species or system chicken (white leghorn)
# Settings: forebrains of 7-day-old chicken; 80 pM 2-[^125I]iodomelatonin; 90 minutes at 25°C; non-specific binding with 10^-5M melatonin; log-probit analysis; read-out: IC50 (nM), Action of inhibiting 2-[^125I]iodomelatonin binding
# Experimental: Inhibition of 2-[^125I]iodomelatonin binding activity
# The forebrains of 7-day-old chicken (white leghorn) were homogenized with ice-cold assay buffer (50 mM Tris-HCl, pH 7.7 at 25°C) and centrifuged at 44,000 x g for 10 minutes at 4°C. The pellet was washed once with the same buffer and storred at -30°C until use. For the assay, the frozen tissue pellet was thawed and homogenized with the assay buffer to make a protein concentration of 0.3 - 0.4 mg/ml. An 0.4 ml aliquot of this homogenate was incubated with a test compound and 80 pM 2-[^125I]iodomelatonin in a total volume of 0.5 ml for 90 minutes at 25°C. The reaction was terminated by adding 3 ml of ice-cold assay buffer immediately followed by vaccum filtration on Whatman GF/B which was further washed twice with 3 ml of ice-cold assay buffer. The radioactivity on the filter was determined by means of γ-counter. […] The 50% inhibiting concentration (IC50) was determined by the log-probit analysis.
row,SMILES,IC50 [nM]
1,"CC(=O)NCCC1CCc2ccc3c(c21)CCO3 (stereo not drawn) [Example 1, N-[2-(1,6,7,8-tetrahydro-2H-indeno[5,4-b]furan-8-yl)ethyl]acetamide]",0.28
2,"CCCC(=O)NCCC1CNc2ccc3c(c21)CCCO3 (stereo not drawn) [Example 8, N-[2-(1,2,3,7,8,9-hexahydropyrano[3,2-e]indol-1-yl)ethyl]butyramide]",0.22
3,"CCC(=O)NCCC1=CCc2ccc3c(c21)CCO3 [Example 15, N-[2-(1,6-dihydro-2H-indeno[5,4-b]furan-8-yl)-ethyl]propionamide]",0.1
4,"CCCC(=O)NCCC1=CCc2ccc3c(c21)CCO3 [Example 16, N-[2-(1,6-dihydro-2H-indeno[5,4-b]furan-8-yl)-ethyl]butyramide]",0.095
5,"CCCC(=O)NCCC1CCc2ccc3c(c21)CCO3 (stereo not drawn) [Example 13, N-[2-(1,6,7,8-tetrahydro-2H-indeno[5,4-b]furan-8-yl)ethyl]butyramide]",0.12
6,"CCC(=O)NCCC1CCc2ccc3c(c21)CCO3 (stereo not drawn) [Example 2, N-[2-(1,6,7,8-tetrahydro-2H-indeno[5,4-b]furan-8-yl)ethyl]propionamide]",0.13
7,"CCC(=O)NCC[C@@H]1CCc2ccc3c(c21)CCO3 [Example 11, (S)-N-[2-(1,6,7,8-tetrahydro-2H-indeno[5,4-b]-furan-8-yl)ethyl]propionamide]",0.048
8,"CC(=O)NCCC1=CCc2ccc3c(c21)CCO3 [Example 14, N-[2-(1,6-dihydro-2H-indeno[5,4-b]furan-8-yl)ethyl]acetamide]",0.24
9,"CCCC(=O)NCCc1c[nH]c2ccc3c(c12)CCCO3 [Example 5, N-[2-(3,7,8,9-tetrahydropyrano[3,2-e]indol-1-yl)ethyl]butyramide]",0.082
10,"CC(=O)NCCc1c[nH]c2ccc3c(c12)CCCO3 [Example 3, N-[2-(3,7,8,9-tetrahydropyrano[3,2-e]indol-1-yl)ethyl]acetamide]",0.46
11,"CCC(=O)NCCc1c[nH]c2ccc3c(c12)CCCO3 [Example 4, N-[2-(3,7,8,9-tetrahydropyrano[3,2-e]indol-1-yl)ethyl]propionamide]",0.13
12,"CCC(=O)NCCC1CNc2ccc3c(c21)CCCO3 (stereo not drawn) [Example 7, N-[2-(1,2,3,7,8,9-hexahydropyrano[3,2-e]indol-1-yl)ethyl]propionamide]",0.46
